Test results taken from patent US20260219274A1, “POLYOL SWEETNERS AND CARDIOVASCULAR AND THROMBOTIC EVENT RISK” (THE CLEVELAND CLINIC FOUNDATION, priority 2023, published 2026).

How the values were obtained:
[1] = test system: human platelet-rich plasma; assay: Aggregometry in platelet-rich plasma; type: cell-based; details: for platelet responsiveness / aggregation with varying polyol level: fixed submaximal ADP or TRAP6, varying pre-incubation levels
Method: Aggregometry in platelet rich plasma (PRP) was performed as previously described^40 and outlined in supplemental methods.
Platelet rich plasma (PRP) was isolated as previously described.^5 Whole blood was drawn from healthy donors and anticoagulated with sodium citrate (0.109 M). PRP was prepared by centrifuging at 100×g for 10 min at 22° C. Platelet poor plasma (PPP) was obtained by additional centrifugation of the remaining blood samples at 11,000×g for 2 min. Next, platelets were counted with a hemocytometer and the platelet concentration adjusted to 2×10^8/mL using PPP. PRPs were then pre-incubated with xylitol (Catalogue #X3375-5G, Sigma, St. Louis, MO, USA) at indicated concentrations or vehicle (saline) for 30 min at 22° C. After exposure to xylitol or vehicle, PRPs were maintained in suspension with constant stirring (600 rpm) at 37° C. Subsequently, platelet aggregation was induced by adding the agonists ADP (up to 5 μM, Catalogue #384, Chronolog, Havertown, PA, US) or TRAP6 (TFLLR-NH2, up to 10 μM, Catalogue #464, Tocris, Bristol, UK). For all platelet aggregometry experiments, blood was always processed within approx. 30 minutes of collection, and isolated platelets were used within 120 minutes of isolation. When used, pairs of vehicle vs. xylitol incubated PRP were always incubated and analyzed together (beginning, middle, end of platelet prep use) and after 120 minutes post isolation, PRPs were not used anymore.
Platelet rich plasma (PRP) and platelet poor plasma (PPP) was prepared as previously described with sodium citrate (0.109 M) as anticoagulant^51. Platelets were counted and concentrations adjusted to 2×10^8/mL with PPP. PRPs were pre-incubated with erythritol (Catalogue #E7500, Sigma, St. Louis, MO, USA), glucose (Catalogue #G7021, Sigma, St. Louis, MO, USA) or 1,5-AHG (Catalogue #29874, Cayman Chemical, Ann Arbor, Michigan, USA) (at indicated concentrations) or vehicle (saline) for 30 min at 22° C. After pre-incubation PRPs were maintained in suspension with constant stirring (600 rpm) at 37° C. and platelet aggregation was initiated using ADP (up to 5 μM, Catalogue #384, Chronolog, Havertown, PA, US) or TRAP6 (TFLLR-NH2, up to […], Catalogue #464, Tocris, Bristol, UK).

[2] = test system: stable subjects undergoing elective diagnostic cardiac evaluations (Discovery Cohort); details: in vivo
From the text: Our first study employed a Discovery Cohort, where we used untargeted metabolomics (semi-quantitative analyses) to analyze plasma samples from 1,157 stable subjects to identify circulating analytes whose levels were associated with future development of adverse cardiovascular events over an ensuing 3 year period. The Discovery Cohort included sequential stable patients (ages 18 years or above) undergoing elective diagnostic coronary angiography for risk evaluation at a quaternary referral center between 2001 and 2007 (GeneBank at the Cleveland Clinic; clinicaltrials.gov identifier: NCT00590200) with clinical and longitudinal outcomes.
In both, the Discovery and Validation Cohorts, Major Adverse Cardiovascular Events (MACE) were defined as death, nonfatal myocardial infarction, or nonfatal cerebrovascular accident (stroke) during follow-up. Adjudicated long term survival data were collected through medical records review and Social Security Death Index query. Cardiovascular disease (CVD) was indicated as presence of peripheral artery disease or coronary artery disease, indicated as any clinical history of myocardial infarction, coronary revascularization (including percutaneous coronary intervention, coronary artery bypass surgery), or angiographic evidence of significant stenosis (≥50%) in 1 or more major coronary arteries. Estimated glomerular filtration rate (eGFR) in both cohorts was calculated based on the recent Chronic Kidney Disease Epidemiology Collaboration 2021 CKD-EPI Creatinine equation.^37 Platelet-related hematology analyses were performed with an Advia 120 hematology analyzer (Siemens, New York, NY).^38 Use of anti-platelet agents (=1556) was defined as either aspirin or a P2Y12 agent or both. All observational studies in this example are reported in compliance with the STrengthening the Reporting of Observational studies in Epidemiology (STROBE)-Statement.^39 Information on gender of study participants of the Discovery and Validation Cohorts is reported in Table 1-3.
For untargeted mass spectrometry analyses, subject plasma samples were derivatized and run on GC-MS analyses as previously described.^19 Raw data files were processed using the metabolomics BinBase database.^45
Continuous variables are summarized as median (interquartile range [IQR]), and categorical variables are presented as %. Difference between groups (e.g. tertiles or quartiles) were examined using Kruskal Wallis test for continuous variables and chisq (χ^2) test for categorical variables. Kaplan-Meier analysis with Cox proportional-hazards regression was used for time-to-event analysis to determine hazard ratios (HR) and 95% confidence intervals (CI) for incident MACE. Adjustments included traditional cardiovascular risk factors (age, sex, diabetes mellitus, systolic blood pressure, low-density lipoprotein cholesterol levels, high-density lipoprotein cholesterol levels, triglyceride levels, smoking status) and high-sensitivity C-reactive protein (hsCRP). We confirmed that the proportionality hazards assumptions were met using the Schoenfeld residuals against the transformed time. Mann-Whitney U-test or Wilcoxon matched-pairs signed rank test were applied to continuous variables to examine differences between 2 groups. Kruskal-Wallis test with Dunn's post hoc test was used for pairwise multiple comparisons of ranked data. Two-way ANOVA with Šidák's multiple comparison post hoc test was used for multiple-group comparisons of aggregometry responses using different concentrations of agonists. For analysis of collagen-dependent platelet adhesion in whole blood, a two-way repeated measures ANOVA with Sidák's multiple comparison post hoc test was used. All reported measurements represent distinct samples. Data analyses were performed with R software (version 4.0.2) and GraphPad Prism software (version 9.1.2). A two-sided P<0.05 was considered statistically significant. […]

Row | Compound | stimulus-dependent platelet aggregation response to ADP and TRAP6 ([1]; PRP incubated with the polyol versus vehicle, submaximal agonist) | platelet responsiveness / aggregation with varying polyol level [1] | erythritol concentration eliciting significant increase in ADP-stimulated aggregometry responses ([1]; threshold, FIG. 27) | erythritol concentration eliciting significant increase in thrombin-stimulated aggregometry responses ([1]; threshold, FIG. 27) | HR for MACE [2] | HR with 95% CI [2] | adjusted HR for incident MACE [2] | stimulus-dependent platelet activation and aggregation ([1]; xylitol 30 μM with sub-maximal ADP or TRAP6) | effect on PRP without agonist ([1]; xylitol 30 μM, brief incubation) | adjusted HR [95% CI] for incident (3 year) MACE [2] | hazard ratio (HR) [95% CI] for incident (3 year) MACE [2]
1 | OC[C@@H](O)[C@@H](O)CO [erythritol] | significant increase | dose-dependently enhanced | 18 µM | 18 µM | 3.22 [95% CI 1.91-5.41] | 1.31 (1.17-1.46) | 2.95 [1.70-5.12] | – | – | – | –
2 | OC[C@@H](O)[C@H](O)[C@@H](O)CO [xylitol] | – | dose-dependent enhancement | – | – | – | – | – | marked enhancement | no effect | 1.64 [1.05-2.56] | 1.63 [1.04-2.53]
